≈ marks a conversion by molar mass, not a printed value.

Tested on in one series: not listed separately
Put plainly: Determination of Kinetic Solubility. The format is physicochemical. As to conditions: phosphate-buffered saline, aqueous buffer, kinetic from dmso stock; PBS pH 7.4, 2% final DMSO, 25° C., two hours; effective range approximately 2-400 μM. As to the method: A 20 mM stock solution of the test compound in 100% DMSO dilutions were prepared to a theoretical concentration of 400 μM in duplicates in phosphate-buffered saline pH 7.4 (138 mM NaCl, 2.7 mM KCl, 10 mM K-phosphate) with 2% final DMSO. The experimental compound dilutions in PBS were further allowed to equilibrate at 25° C. on a thermostatic shaker for two hours and then filtered through HTS filter plates using a vacuum manifold. The filtrates of test compounds were diluted 2-fold with acetonitrile with 2% DMSO before measuring.
In parallel, compound dilutions in 50% acetonitrile/PBS were prepared to theoretical concentrations of 0 μM (blank), 10 μM, 25 μM, 50 μM, 100 μM, and 200 μM with 2% final DMSO to generate calibration curves. Ondansetron was used as reference compound to control proper assay performance 200 μl of each sample was transferred to 96-well plate and measured in 200-550 nm range with 5 nm step.
The concentrations of compounds in PBS filtrate were calculated using a dedicated Microsoft Excel calculation script. Proper absorbance wavelengths for calculations were selected for each compound manually based on absorbance maximums (absolute absorbance unit values for the minimum and maximum concentration points within 0-3 OD range). Each of the final datasets was additionally visually evaluated by the operator and goodness of fit (R2) was calculated for each calibration curve.
In general, kinetic solubility refers to solubility judged after dilution from a stock solution rather than from solid. Consider `CCN1CCC(OC(=O)CCCSc2ccccc2)CC1.O=C(O)C(F)(F)F` [Compound 1, 1-ethylpiperidin-4-yl 4-(phenylsulfanyl)butanoate], for which the solubility (kinetic) at 2 h is greater than 400 µM.
Still for that read-out and setting: the figure for `CN1CCC(C)(OC(=O)CCCSc2ccccc2)CC1.O=C(O)C(F)(F)F` [Compound 2, 1,4-dimethylpiperidin-4-yl 4-(phenylsulfanyl)butanoate] is greater than 400 µM.
Still for that read-out and setting: the figure for `O=C(O)CC[C@@H](NC(=O)CCCSc1ccccc1)C(=O)O` [Compound 5] is 396 µM (≈ 129 µg/mL); for `O=C(CCCSc1ccccc1)OCC(O)CO` (centres unmarked) [Compound 6] it is greater than 400 µM; for `O=C(CCCSc1ccccc1)OCCOCCO` [Compound 7] it is 385 µM (≈ 109 µg/mL).
The same measure, in the same setting: the figure for `Cl.NCCC[C@@H](NC(=O)CCCSc1ccccc1)C(=O)O` [Compound 8] is 383 µM; for `NCCC[C@H](NC(=O)CCCSc1ccccc1)C(=O)N[C@@H](CC(=O)O)C(=O)O.O=C(O)C(F)(F)F` [Compound 9] it is 383 µM; for `NCCC[C@@H](NC(=O)CCCSc1ccccc1)C(=O)N[C@H](CCC(=O)O)C(=O)O.O=C(O)C(F)(F)F` [Compound 11] it is 391 µM.
The molecule `NCCC[C@@H](NC(=O)[C@@H](CCC(=O)O)NC(=O)CCCSc1ccccc1)C(=O)O.O=C(O)C(F)(F)F` [Compound 12] displayed a solubility (kinetic) at 2 h greater than 400 µM.
In the case of `CN1CCN(CCOC(=O)CCCSc2ccccc2)CC1.O=C(O)C(F)(F)F` [Compound 13], the solubility (kinetic) at 2 h is greater than 400 µM.
`O=C(O)C[C@@H](NC(=O)CCCSc1ccccc1)C(=O)O` [Compound 14] showed a solubility (kinetic) at 2 h of 387 µM (≈ 120 µg/mL).
Same read-out and setting: then `CN1CC2(CC(OC(=O)CCCSc3ccccc3)C2)C1` [Compound 15], with no less than 400 µM; and `O=C(CCCSc1ccccc1)OCCNCCO` [Compound 16], with greater than 400 µM.
The same measure, in the same setting: the figure for `O=C(CCCSc1ccccc1)O[C@@H]1CCNC1.O=C(O)C(F)(F)F` [Compound 17] is greater than 400 µM; for `C[C@H](CN(C)C)OC(=O)CCCSc1ccccc1.O=C(O)C(F)(F)F` [Compound 18] it is 362 µM; for `O=C(O)C[C@@H](OC(=O)CCCSc1ccccc1)C(=O)O` [Compound 19] it is greater than 400 µM.
Same read-out and setting: then `O=C(O)CC[C@H](NC(=O)[C@H](CO)NC(=O)CCCSc1ccccc1)C(=O)O` [Compound 20], with greater than 400 µM.
`N[C@@H](COC(=O)CCCSc1ccccc1)C(=O)N[C@H](CCC(=O)O)C(=O)O.O=C(O)C(F)(F)F` [Compound 21] returned a kinetic solubility at 2 h greater than 400 µM.
For the molecule `NCCCC[C@@H](N)C(=O)NCCOC(=O)CCCSc1ccccc1.O=C(O)C(F)(F)F.O=C(O)C(F)(F)F` [Compound 23], the kinetic solubility at 2 h came out at 399 µM.
Still for that read-out and setting: the figure for `CC(C)[C@@H](N)C(=O)NCCCOC(=O)CCCSc1ccccc1` [Compound 24] is 390 µM (≈ 137 µg/mL).

The next series has as its system cisplatin induced acute kidney injury (CI-AKI). The series is described as follows: cisplatin induced acute kidney injury (CI-AKI) in mice, Compound 3. The format is in vivo, C57BL/6J mice. Conditions: 50 mg/kg IP; 5th day after the cisplatin injection. As to the method: The aim of the study was to investigate the efficacy of test compounds in the model of cisplatin induced acute kidney injury (CI-AKI) in mice.
Serum analysis for urea (BUN) was performed on the 5th day and 9th days after cisplatin administration. The mean body weight loss per group was calculated every day of the study as percentage loss of initial (day 0) weight for each individual animal.
Study design, animal selection, handling and treatment were all in accordance with the CRO's study protocols and Institutional Animal Care and Use Guidelines Animal treatment and serum samples preparation were conducted by the Animal Laboratory personnel at the CRO. 60 female C57BL/6J mice 9-12 weeks old were randomized by body weight and divided into 2 groups, 30 animals each. Body weights ranged from 13.9 to 22.0 g with an average body weight across all groups 17.75 g (SD=1.30; CV=7.3%). Each mouse was treated with a single dose via IP route of administration with cisplatin at the dose of 11 mg/kg on the day 0 of the study. […] The mice in Group 1 remained untreated after the cisplatin injection until the terminal sacrifice.
Cisplatin was administered without dilution as a factory-made 1 mg/ml solution for infusion at the injection volume of 11 ml/kg for the dose of 11 mg/kg. […] Only freshly prepared formulation was used for each dosing; each working formulation batch was prepared immediately prior to the administration. The working formulations were sterile filtered using 0.2 μm cellulose acetate syringe filters before injections. The dosing volume for the test compound was 5 ml/kg of body weight. The working formulations were administered as transparent clear solutions. Intraperitoneal (IP) route of administration was used in the study. Urea (BUN) was determined in the serum using a commercial kit according to the manufacturer's instructions. […] The rate of absorbance change at λ=340 nm is proportional to the urea concentration. […] Creatinine was measured using mModified Jaffe's method, without deproteinization. […]
As for `CN(C)CCOC(=O)CCCSc1ccccc1` [Compound 3, 2-(dimethylamino)ethyl 4-(phenylsulfanyl)butanoate], the “mean level of creatinine in serum compared to G1” value is “significantly less” and the “mean level of urea in serum compared to G1” value is recorded as “significantly less”.

Still in this series, the particulars now being: G2: 50 mg/kg IP every 24 h for seven days starting Day 2; cisplatin 11 mg/kg IP Day 0.
`CN(C)CCOC(=O)CCCSc1ccccc1` [Compound 3, 2-(dimethylamino)ethyl 4-(phenylsulfanyl)butanoate]: the “gradual recovery of mean body weight” value is given as “beginning from the sixth day of the study”.
